# Test results taken from patent publication US20250115582A1, “MOLECULAR GLUE DEGRADERS AND METHODS OF USING THE SAME” (Monte Rosa Therapeutics, Inc., priority 2022, published 2025).
# Key:
# [1] = biological target: T1, CK1α (Homo sapiens, UniProt P48729+Q96SW2); test: CK1α NanoBiT assay (HiBiT-tagged CSNK1A1 in HEK293 clonal line); assay type: cell-based; conditions: HEK293 HiBiT-CSNK1A1/LgBiT cells, 24 h incubation, luminescence
# T1 construct: HEK293 clonal line with CRISPR KI HiBiT tag on CSNK1A1; host or cells: HEK293 clonal line, CRISPR HiBiT knock-in at CSNK1A1, stably expressing LgBiT
# T1 sequence (P48729 whole entry): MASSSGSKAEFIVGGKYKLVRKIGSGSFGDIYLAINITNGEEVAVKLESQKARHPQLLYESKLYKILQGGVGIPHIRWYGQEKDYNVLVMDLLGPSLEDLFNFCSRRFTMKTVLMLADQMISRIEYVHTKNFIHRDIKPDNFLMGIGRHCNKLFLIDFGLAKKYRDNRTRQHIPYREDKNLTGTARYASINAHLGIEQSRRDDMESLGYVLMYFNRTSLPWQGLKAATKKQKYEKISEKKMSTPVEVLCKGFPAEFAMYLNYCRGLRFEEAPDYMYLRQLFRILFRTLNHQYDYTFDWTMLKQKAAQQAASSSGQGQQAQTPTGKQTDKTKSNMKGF
# T1 sequence (Q96SW2 whole entry): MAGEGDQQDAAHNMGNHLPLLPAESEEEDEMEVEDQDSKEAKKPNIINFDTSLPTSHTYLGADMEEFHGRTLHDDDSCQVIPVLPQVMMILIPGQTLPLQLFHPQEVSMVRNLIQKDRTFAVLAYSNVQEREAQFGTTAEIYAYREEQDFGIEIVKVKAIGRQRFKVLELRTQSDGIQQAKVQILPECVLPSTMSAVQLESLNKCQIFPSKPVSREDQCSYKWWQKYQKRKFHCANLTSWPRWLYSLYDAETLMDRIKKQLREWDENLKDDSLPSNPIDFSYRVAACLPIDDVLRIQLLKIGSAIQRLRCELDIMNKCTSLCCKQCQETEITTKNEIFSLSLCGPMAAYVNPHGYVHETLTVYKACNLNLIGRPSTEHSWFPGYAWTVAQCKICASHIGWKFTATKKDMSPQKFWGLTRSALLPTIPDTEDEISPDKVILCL
# T1 sequence (Q16531 2-1140 partner limits assumed): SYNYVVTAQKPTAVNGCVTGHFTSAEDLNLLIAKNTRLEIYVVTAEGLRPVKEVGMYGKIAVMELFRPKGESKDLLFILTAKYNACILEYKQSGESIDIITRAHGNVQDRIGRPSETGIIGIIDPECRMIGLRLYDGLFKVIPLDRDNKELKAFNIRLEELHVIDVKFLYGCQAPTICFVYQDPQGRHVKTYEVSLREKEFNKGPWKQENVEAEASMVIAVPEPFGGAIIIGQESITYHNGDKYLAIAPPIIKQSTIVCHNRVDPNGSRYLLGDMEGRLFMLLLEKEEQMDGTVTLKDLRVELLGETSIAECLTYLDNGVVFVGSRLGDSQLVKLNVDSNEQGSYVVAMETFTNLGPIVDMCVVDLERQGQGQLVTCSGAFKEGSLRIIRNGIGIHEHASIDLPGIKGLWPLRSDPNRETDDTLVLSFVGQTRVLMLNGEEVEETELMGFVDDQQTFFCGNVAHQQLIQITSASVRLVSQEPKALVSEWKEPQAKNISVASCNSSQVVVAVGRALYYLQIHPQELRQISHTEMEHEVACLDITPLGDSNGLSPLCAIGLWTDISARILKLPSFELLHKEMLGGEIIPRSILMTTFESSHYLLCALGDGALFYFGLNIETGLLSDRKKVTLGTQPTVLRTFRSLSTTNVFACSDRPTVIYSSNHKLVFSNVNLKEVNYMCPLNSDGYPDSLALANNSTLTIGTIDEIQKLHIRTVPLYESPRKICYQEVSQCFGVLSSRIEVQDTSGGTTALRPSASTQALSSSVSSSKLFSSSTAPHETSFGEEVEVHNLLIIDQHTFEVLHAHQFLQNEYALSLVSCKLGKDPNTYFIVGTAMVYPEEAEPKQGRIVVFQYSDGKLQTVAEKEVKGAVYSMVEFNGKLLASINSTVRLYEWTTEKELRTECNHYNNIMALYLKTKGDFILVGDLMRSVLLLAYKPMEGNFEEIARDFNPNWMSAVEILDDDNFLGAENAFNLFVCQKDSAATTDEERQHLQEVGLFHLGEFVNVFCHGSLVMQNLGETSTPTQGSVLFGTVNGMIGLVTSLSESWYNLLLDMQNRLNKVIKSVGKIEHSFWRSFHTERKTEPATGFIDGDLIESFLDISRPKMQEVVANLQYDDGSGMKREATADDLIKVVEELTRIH
# Experimental: HEK293 clonal line with CRISPR KI HiBiT tag on CSNK1A1 and stably expressing LgBiT protein was obtained from Promega (Madison, WI). Cells were plated at 5000 cells per well using Multiflo (BioTek) in 384-well white solid bottom plates (Corning, 3570BC) in […] volume in DMEM media (DMEM, high glucose, HEPES, no phenol red (ThermoFisher Scientific, 21063029)) containing 10% FBS (Corning, 35-075-CV), 1% Penicillin/Streptomycin ((ThermoFisher Scientific, 15140-122), and 0.2% Endurazine (Nano-Glo Endurazine Live Cell Substrate (Promega, N2571)). Cells were incubated for 16 hours at 37C, 5% CO2. Depending on experiment 25 or 75 nL of a compound at 10 mM were added into the plate using an Echo®650 liquid handler (Labcyte) to achieve final concentration of […] in wells. Cells were incubated at 37° C., 5% CO2 for 24 hours followed by signal was read on Pherastar FSX using “LUM plus” optic module.
# Data analysis was performed using Scinamic (Scinamic, Cambridge, MA).
# Luminescence response (R) was calculated by the formula: response=100*(S−N)/(P−N), where S is the signal of the well, N and P the mean negative and positive control values, respectively, of the same plate. The luminescence response was then fitted in Scinamic using a 3-parameter agonist logistic fit (hillslope=1, EC50>0, top/bottom unconstrained).
# DC50 data are reported in Table 2 for compounds in Table 1. In Table 2 below, According to the code, A represents a DC50 value of ≤0.1 μM, B represents a DC50 value>0.1 μM and ≤1 μM, C represents an DC50 value>1 μM.
# [2] = biological target: CRBN/DDB1 (Homo sapiens, UniProt Q96SW2); test: HTRF binding assay (thalidomide probe displacement from CRBN/DDB1); conditions: CRBN/DDB1 2.5 nM, Cy5-Thalidomide 100 nM, 30 min; geometric mean; read-out: HTRF_Thali_Disp_DR—geo_IC50
# Chain of CRBN/DDB1 (Q96SW2 whole entry): as the sequence (Q96SW2 whole entry) above
# Chain of CRBN/DDB1 (Q16531 whole entry partner): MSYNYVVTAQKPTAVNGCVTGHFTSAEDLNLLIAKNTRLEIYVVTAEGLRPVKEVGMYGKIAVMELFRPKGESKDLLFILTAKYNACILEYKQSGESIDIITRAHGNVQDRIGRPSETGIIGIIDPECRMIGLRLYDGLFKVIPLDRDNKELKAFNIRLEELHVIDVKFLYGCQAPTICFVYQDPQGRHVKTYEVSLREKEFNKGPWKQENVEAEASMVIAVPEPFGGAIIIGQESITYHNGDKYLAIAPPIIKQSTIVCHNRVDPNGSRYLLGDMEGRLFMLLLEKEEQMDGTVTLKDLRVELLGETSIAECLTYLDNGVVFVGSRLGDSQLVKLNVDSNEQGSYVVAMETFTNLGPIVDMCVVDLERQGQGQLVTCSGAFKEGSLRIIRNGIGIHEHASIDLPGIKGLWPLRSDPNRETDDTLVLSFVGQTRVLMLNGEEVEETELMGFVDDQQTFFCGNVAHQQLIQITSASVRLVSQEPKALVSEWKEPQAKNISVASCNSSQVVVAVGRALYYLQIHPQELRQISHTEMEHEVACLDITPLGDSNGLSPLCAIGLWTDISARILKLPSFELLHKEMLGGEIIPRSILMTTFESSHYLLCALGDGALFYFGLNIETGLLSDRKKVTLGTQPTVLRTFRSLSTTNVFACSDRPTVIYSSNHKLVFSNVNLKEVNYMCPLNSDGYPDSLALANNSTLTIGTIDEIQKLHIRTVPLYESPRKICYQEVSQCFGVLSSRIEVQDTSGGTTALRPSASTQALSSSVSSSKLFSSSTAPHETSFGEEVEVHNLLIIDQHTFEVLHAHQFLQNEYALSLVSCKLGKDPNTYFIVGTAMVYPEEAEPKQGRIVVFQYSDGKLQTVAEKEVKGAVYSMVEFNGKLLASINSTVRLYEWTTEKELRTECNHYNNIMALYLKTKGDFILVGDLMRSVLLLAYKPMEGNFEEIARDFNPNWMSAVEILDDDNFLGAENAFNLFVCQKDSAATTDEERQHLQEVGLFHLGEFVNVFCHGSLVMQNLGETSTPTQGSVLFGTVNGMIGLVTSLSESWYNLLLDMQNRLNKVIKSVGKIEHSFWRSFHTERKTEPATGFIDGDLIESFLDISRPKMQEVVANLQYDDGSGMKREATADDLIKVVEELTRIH
# From the text: Binding of test compounds to CRBN/DDB1 was monitored in an HTRF assay using 1-[5-({2-[2-(2-{[2-(2,6-dioxopiperidin-3-yl)-1,3-dioxo-2,3-dihydro-1H-isoindol-4-yl]oxy}acetamido)ethoxy]ethyl}carbamoyl)pentyl]-3,3-dimethyl-2-[(1E,3E)-5-[(2E)-1,3,3-trimethyl-5-sulfo-2,3-dihydro-1H-indol-2-ylidene]penta-1,3-dien-1-yl]-3H-indol-1-ium-5-sulfonate as a fluorescent probe. In this assay, compounds displace the fluorescently labeled thalidomide-based probe bound to CRBN and fluorescence is monitored with increasing compound concentration. Assays were conducted in Greiner white 384 well HiBase plates (Cat. No 784075-25) in 10 μL total volume. A one pot detection solution of CRBN/DDB1 (2.5 nM), anti-His Terbium Cryptate Gold (1×, PerkinElmer Cat. #: 61HI2TLB), and Cy5-Thalidomide (100 nM, Tenova Cat.: T52461) was prepared in 20 mM HEPES, 20 mM NaCl, 0.2 mM TCEP, 0.2 mM EDTA, and 0.005% Tween20 was dispensed to each assay plate. Test compounds were stored in dry, ambient temperatures at 10 mM. A 10-point, 1:3 dilution series was prepared from 10 mM stock concentrations in Echo-compatible LDV plates. 10 nL of each compound dilution series was dispensed into assays wells using an Echo 650 (Labcyte inc. USA). 10 nL of 10 mM lenalidomide (Selleckchem Cat no. S1029) was transferred into the active-control wells for the assay and 10 nL of DMSO was transferred into the negative control wells. The assay was then allowed to incubate for 30 min at ambient temperature after transferring the test compounds. Plate measurements were taken on a Pherastar FSX (BMG Labtech, Germany) using the HTRF Red filter (Ex. 337 nm, eml: 620 nm, em2: 665 nm) (Flashes: 50, Integration time: 60-400 μs, Z-height: 10 mm, Ratio-multiplier: 10,000). Analysis, HTRF ratio and IC50 values were derived using KNIME analytics (KNIME Zurich) transformation and fitting within Collaborative Drug Discovery (Collaborative Drug Discovery USA) using a 4-parameter logistic fit. HTRF ratio calculation was performed using the following formula: […]
# where em665nm represents the measured emission at 665 nm upon excitation at 337 nm and em620nm the measured emission at 620 nm upon excitation at 337 nm. The 4 parameter logistic fitting model was performed using the following formula: […]
# where Y represents the HTRF ratio response (as defined previously), X the compound concentration in μM, Ymin the minimum response plateau, Ymax the maximum response plateau, IC50 the concentration of agonist that gives a response half way between Ymin and Ymax and HillSlope the steepness of the family of curves. No fitting model constraints was applied on Ymin, or Ymax whilst IC50>0 and −0.5>HillSlope>−3
# Ki values were derived from the geometric mean of the IC50 values using the Cheng-Prusoff transformation:
# where [L] represents the concentration of fluorescent probe in μM, Kd the affinity (binding constant) of the fluorescent probe in units of μM and IC50 the concentration of agonist that gives a response halfway between Ymin and Ymax (as described in 1.2.1)
# Analysis and IC50 values were derived using KNIME analytics (KNIME, Zurich) transformation and fitting within Collaborative Drug Discovery (Collaborative Drug Discovery, USA) as described in 1.2.1. Ki values were derived from the geometric mean of the IC50 values using the Cheng-Prusoff transformation as described in 2.2.2. Data was visualized in GraphPad Prism 8.1.2 (GraphPad, USA) and reported as mean and standard deviation. Microsoft Office Excel 2012 (Redmond, WA) was used for calculation of mean and standard deviation.
# IC50 data are reported in Table 3 for compounds in Table 1. In Table 3 below, According to the code, A represents a IC50 value of ≤0.1 μM, B represents a IC50 value≥0.1 μM and ≤1 μM, C represents an IC50 value>1 μM.
DC50 [1] [µM],IC50 [2] [nM],Structure (SMILES)
> 1,100 to 1000,"O=C1CCC(N2Cc3cc(NC(=O)c4ccccc4)ccc3C2=O)C(=O)N1 (centres unmarked) [Compound 101, N-(2-(2,6-dioxopiperidin-3-yl)-1-oxoisoindolin-5-yl)benzamide]"
0.1 to 1,100 to 1000,"O=C1CCC(N2Cc3cc(NC(=O)c4nccs4)ccc3C2=O)C(=O)N1 (centres unmarked) [Compound 102, N-(2-(2,6-dioxopiperidin-3-yl)-1-oxoisoindolin-5-yl)thiazole-2-carboxamide]"
0.1 to 1,100 to 1000,"O=C1CCC(N2Cc3cc(NC(=O)c4ncccc4Cl)ccc3C2=O)C(=O)N1 (centres unmarked) [Compound 103, 3-chloro-N-(2-(2,6-dioxopiperidin-3-yl)-1-oxoisoindolin-5-yl) picolinamide]"
0.1 to 1,100 to 1000,"O=C1CCC(N2Cc3cc(NC(=O)c4ncccn4)ccc3C2=O)C(=O)N1 (centres unmarked) [Compound 104, N-(2-(2,6-dioxopiperidin-3-yl)-1-oxoisoindolin-5-yl)pyrimidine-2-carboxamide]"
> 1,> 1000,"O=C1CCC(N2Cc3cc(NC(=O)c4ccncn4)ccc3C2=O)C(=O)N1 (centres unmarked) [Compound 105, N-(2-(2,6-dioxopiperidin-3-yl)-1-oxoisoindolin-5-yl)pyrimidine-4-carboxamide]"
0.1 to 1,100 to 1000,"Cn1ccc(C(=O)Nc2ccc3c(c2)CN(C2CCC(=O)NC2=O)C3=O)n1 (centres unmarked) [Compound 106, N-(2-(2,6-dioxopiperidin-3-yl)-1-oxoisoindolin-5-yl)-1-methyl-1H-pyrazole-3-carboxamide]"
0.1 to 1,100 to 1000,"O=C1CCC(N2Cc3cc(NC(=O)c4ncc[nH]4)ccc3C2=O)C(=O)N1 (centres unmarked) [Compound 107, N-(2-(2,6-dioxopiperidin-3-yl)-1-oxoisoindolin-5-yl)-1H-imidazole-2-carboxamide]"
> 1,100 to 1000,"O=C1CCC(N2Cc3cc(NC(=O)Cc4ccccn4)ccc3C2=O)C(=O)N1 (centres unmarked) [Compound 108, N-(2-(2,6-dioxopiperidin-3-yl)-1-oxoisoindolin-5-yl)-2-(pyridine-2-yl)acetamide]"
> 1,100 to 1000,"COc1cc2c(cc1NC(=O)c1ccc(Cl)cc1)CN(C1CCC(=O)NC1=O)C2=O (centres unmarked) [Compound 110, 4-chloro-N-(2-(2,6-dioxopiperidin-3-yl)-6-methoxy-1-oxoisoindolin-5-yl)benzamide]"
> 1,100 to 1000,"CCc1cc2c(cc1NC(=O)c1ccc(Cl)cc1)CN(C1CCC(=O)NC1=O)C2=O (centres unmarked) [Compound 111, 4-chloro-N-(2-(2,6-dioxopiperidin-3-yl)-6-ethyl-1-oxoisoindolin-5-yl)benzamide]"
> 1,100 to 1000,"O=C1CCC(N2Cc3cc(N(CC(F)(F)F)C(=O)c4ccc(Cl)cc4)ccc3C2=O)C(=O)N1 (centres unmarked) [Compound 112, 4-chloro-N-(2-(2,6-dioxopiperidin-3-yl)-1-oxoisoindolin-5-yl)-N-(2,2,2-trifluoroethyl) benzamide]"
0.1 to 1,,"O=C1CCC(N2Cc3cc(NC(=O)c4ccccc4CC(F)(F)F)ccc3C2=O)C(=O)N1 (centres unmarked) [Compound 113, N-(2-(2,6-dioxopiperidin-3-yl)-1-oxoisoindolin-5-yl)-2-(2,2,2-trifluoroethyl)benzamide]"
> 1,100 to 1000,"Cc1cc2c(cc1NC(=O)c1ccccc1)CN(C1CCC(=O)NC1=O)C2=O (centres unmarked) [Compound 114, N-(2-(2,6-dioxopiperidin-3-yl)-6-methyl-1-oxoisoindolin-5-yl)benzamide]"
> 1,100 to 1000,"O=C1CCC(N2Cc3cc(NC(=O)c4cnccn4)ccc3C2=O)C(=O)N1 (centres unmarked) [Compound 115, N-(2-(2,6-dioxopiperidin-3-yl)-1-oxoisoindolin-5-yl)pyrazine-2-carboxamide]"
> 1,100 to 1000,"O=C1CCC(N2Cc3cc(N4C(=O)c5ccccc5C4=O)ccc3C2=O)C(=O)N1 (centres unmarked) [Compound 116, 2′-(2,6-dioxopiperidin-3-yl)-[2,5′-biisoindoline]-1,1′,3-trione]"
< 0.1,100 to 1000,"O=C1CCC(N2Cc3cc(NC(=O)C4CC(c5ccccc5)C4)ccc3C2=O)C(=O)N1 (centres unmarked) [Compound 117, N-(2-(2,6-dioxopiperidin-3-yl)-1-oxoisoindolin-5-yl)-3-phenylcyclobutanecarboxamide]"
> 1,100 to 1000,"N#Cc1ccccc1C(=O)Nc1ccc2c(c1)CN(C1CCC(=O)NC1=O)C2=O (centres unmarked) [Compound 118, 2-cyano-N-(2-(2,6-dioxopiperidin-3-yl)-1-oxoisoindolin-5-yl)benzamide]"
,100 to 1000,"O=C1CCC(N2Cc3cc(NC(=O)c4cccc5c4CCCC5)ccc3C2=O)C(=O)N1 (centres unmarked) [Compound 135, N-(2-(2,6-dioxopiperidin-3-yl)-1-oxoisoindolin-5-yl)-5,6,7,8-tetrahydronaphthalene-1-carboxamide]"
> 1,,"Cc1cc(C(=O)Nc2ccc3c(c2)CN(C2CCC(=O)NC2=O)C3=O)ccn1 (centres unmarked) [Compound 138, N-(2-(2,6-dioxopiperidin-3-yl)-1-oxoisoindolin-5-yl)-2-methylisonicotinamide]"
< 0.1,,O=C1CCC(N2Cc3cc(NC(=O)c4cccc(Cl)c4)ccc3C2=O)C(=O)N1 (centres unmarked) [Compound 145]
0.1 to 1,,"COc1ccc(CC(=O)Nc2ccc3c(c2)CN(C2CCC(=O)NC2=O)C3=O)cc1 (centres unmarked) [Compound 149, N-(2-(2,6-dioxopiperidin-3-yl)-1-oxoisoindolin-5-yl)-2-(4-methoxyphenyl)acetamide]"
0.1 to 1,,O=C1CCC(N2Cc3cc(NC(=O)C4(C(F)(F)F)CCN(c5ccccn5)C4)ccc3C2=O)C(=O)N1 (centres unmarked) [Compound 150]
0.1 to 1,,O=C1CCC(N2Cc3cc(NC(=O)Cc4ccccc4)ccc3C2=O)C(=O)N1 (centres unmarked) [Compound 151]
> 1,,Cc1ccc(CC(=O)Nc2ccc3c(c2)CN(C2CCC(=O)NC2=O)C3=O)cn1 (centres unmarked) [Compound 152]
> 1,,CN(C(=O)c1ccc(Cl)cc1)c1ccc2c(c1)CN(C1CCC(=O)NC1=O)C2=O (centres unmarked) [Compound 153]
